Measured values as given in the supplement of paper PMC9663587.

Tests used:
Neratinib/HKI272 [1] = compound: T1, CCOc1cc2ncc(C#N)c(Nc3ccc(OCc4ccccn4)c(Cl)c3)c2cc1NC(=O)/C=C/CN(C)C [Neratinib/HKI272]; assay: GR value, 72 h; higher = faster growth (1 = untreated, <0 = killing);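 also: breast cancer and non-malignant breast epithelial lines, nine half-log doses, viable cells counted by Hoechst and LIVE/DEAD dye imaging versus time-zero plates and DMSO controls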
Flavopiridol [2] = compound: T2, CN1CC[C@H](c2c(O)cc(O)c3c(=O)cc(-c4ccccc4Cl)oc23)[C@H](O)C1 [Flavopiridol]; assay: as above
YKL-5-124 = compound: C=CC(=O)Nc1ccc(C(=O)Nc2[nH]nc3c2CN(C(=O)N[C@H](CN(C)C)c2ccccc2)C3(C)C)cc1 [YKL-5-124]; assay: increase in dead-cell fraction, 72 h; higher = more death;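 also: breast cancer cell lines in 384-well plates, stained with Hoechst plus LIVE/DEAD far red dye and imaged, cells above an LDR intensity threshold counted dead, Hoechst-negative corpses included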
[3] = compound: CCc1cnn2c(NCc3ccc[n+]([O-])c3)cc(N3CCCC[C@H]3CCO)nc12; assay: as above
BSJ-03-123 = compound: CC(=O)c1c(C)c2cnc(Nc3ccc(N4CCN(CCOCCOCCOCCNC(=O)COc5cccc6c5C(=O)N(C5CCC(=O)NC5=O)C6=O)CC4)cn3)nc2n(C2CCCC2)c1=O [BSJ-03-123]; assay: as above
Neratinib/HKI272 [4] = compound: T1, Neratinib/HKI272; assay: as above
LEE011/Ribociclib = compound: CN(C)C(=O)c1cc2cnc(Nc3ccc(N4CCNCC4)cn3)nc2n1C1CCCC1 [LEE011/Ribociclib]; assay: as above
THZ1 = compound: CN(C)C/C=C/C(=O)Nc1ccc(C(=O)Nc2cccc(Nc3ncc(Cl)c(-c4c[nH]c5ccccc45)n3)c2)cc1 [THZ1]; assay: as above
Flavopiridol [5] = compound: T2, Flavopiridol; assay: as above
THZ531 = compound: CN(C)C/C=C/C(=O)Nc1ccc(C(=O)N2CCC[C@@H](Nc3ncc(Cl)c(-c4c[nH]c5ccccc45)n3)C2)cc1 [THZ531]; assay: as above
[6] = compound: CCN1CCN(Cc2ccc(Nc3ncc(F)c(-c4cc(F)c5nc(C)n(C(C)C)c5c4)n3)nc2)CC1; assay: as above
[7] = compound: CC(=O)c1c(C)c2cnc(Nc3ccc(N4CCNCC4)cn3)nc2n(C2CCCC2)c1=O; assay: as above

HCC1187
GR value (Neratinib/HKI272 [1]; 0.0003162 µM): 0.994 GR
GR value (Neratinib/HKI272 [1]; 0.001 µM): 0.99 GR
GR value (Neratinib/HKI272 [1]; 0.003162 µM): 0.792 GR
GR value (Neratinib/HKI272 [1]; 0.01 µM): 1.07 GR
GR value (Neratinib/HKI272 [1]; 0.03162 µM): 0.979 GR
GR value (Neratinib/HKI272 [1]; 0.1 µM): 0.78 GR
GR value (Neratinib/HKI272 [1]; 0.3162 µM): 0.869 GR
GR value (Neratinib/HKI272 [1]; 1 µM): 0.653 GR
GR value (Neratinib/HKI272 [1]; 3.162 µM): 0.484 GR
GR value (Flavopiridol [2]; 0.0001 µM): 0.966 GR
GR value (Flavopiridol [2]; 0.0003162 µM): 0.963 GR
GR value (Flavopiridol [2]; 0.001 µM): 0.368 GR
GR value (Flavopiridol [2]; 0.003162 µM): 1 GR
GR value (Flavopiridol [2]; 0.01 µM): 0.995 GR
GR value (Flavopiridol [2]; 0.03162 µM): 0.961 GR
GR value (Flavopiridol [2]; 0.1 µM): 0.805 GR
GR value (Flavopiridol [2]; 0.3162 µM): -0.16 GR
GR value (Flavopiridol [2]; 1 µM): -0.885 GR
increase in dead-cell fraction (YKL-5-124; 0.001 µM): 0.0446
increase in dead-cell fraction (YKL-5-124; 0.003162 µM): 0.0713
increase in dead-cell fraction (YKL-5-124; 0.01 µM): 0.133
increase in dead-cell fraction (YKL-5-124; 0.03162 µM): 0.0654
increase in dead-cell fraction (YKL-5-124; 0.1 µM): 0.0694
increase in dead-cell fraction (YKL-5-124; 0.3162 µM): 0.0946
increase in dead-cell fraction (YKL-5-124; 1 µM): 0.164
increase in dead-cell fraction (YKL-5-124; 3.162 µM): 0.17
increase in dead-cell fraction (YKL-5-124; 10 µM): 0.406
increase in dead-cell fraction ([3]; 0.0001 µM): 0.0033
increase in dead-cell fraction ([3]; 0.0003162 µM): 0.0035
increase in dead-cell fraction ([3]; 0.001 µM): 0.0039
increase in dead-cell fraction ([3]; 0.003162 µM): 0.0055
increase in dead-cell fraction ([3]; 0.01 µM): 0.0539
increase in dead-cell fraction ([3]; 0.03162 µM): 0.56
increase in dead-cell fraction ([3]; 0.1 µM): 0.662
increase in dead-cell fraction ([3]; 0.3162 µM): 0.668
increase in dead-cell fraction ([3]; 1 µM): 0.598
increase in dead-cell fraction (BSJ-03-123; 0.001 µM): 0.0005
increase in dead-cell fraction (BSJ-03-123; 0.003162 µM): -0.0076
increase in dead-cell fraction (BSJ-03-123; 0.01 µM): -0.0142
increase in dead-cell fraction (BSJ-03-123; 0.03162 µM): -0.0171
increase in dead-cell fraction (BSJ-03-123; 0.1 µM): 0.013
increase in dead-cell fraction (BSJ-03-123; 0.3162 µM): 0.0153
increase in dead-cell fraction (BSJ-03-123; 1 µM): 0.037
increase in dead-cell fraction (BSJ-03-123; 3.162 µM): 0.0469
increase in dead-cell fraction (BSJ-03-123; 10 µM): 0.323
increase in dead-cell fraction (Neratinib/HKI272 [4]; 0.0003162 µM): -0.0132
increase in dead-cell fraction (Neratinib/HKI272 [4]; 0.001 µM): 0.0086
increase in dead-cell fraction (Neratinib/HKI272 [4]; 0.003162 µM): -0.0045
increase in dead-cell fraction (Neratinib/HKI272 [4]; 0.01 µM): -0.0058
increase in dead-cell fraction (Neratinib/HKI272 [4]; 0.03162 µM): -0.0052
increase in dead-cell fraction (Neratinib/HKI272 [4]; 0.1 µM): -0.002
increase in dead-cell fraction (Neratinib/HKI272 [4]; 0.3162 µM): 0.0006
increase in dead-cell fraction (Neratinib/HKI272 [4]; 1 µM): 0.0155
increase in dead-cell fraction (Neratinib/HKI272 [4]; 3.162 µM): 0.0076
increase in dead-cell fraction (LEE011/Ribociclib; 0.001 µM): -0.0158
increase in dead-cell fraction (LEE011/Ribociclib; 0.003162 µM): 0.0194
increase in dead-cell fraction (LEE011/Ribociclib; 0.01 µM): 0.0202
increase in dead-cell fraction (LEE011/Ribociclib; 0.03162 µM): 0.0086
increase in dead-cell fraction (LEE011/Ribociclib; 0.1 µM): -0.01
increase in dead-cell fraction (LEE011/Ribociclib; 0.3162 µM): 0.0057
increase in dead-cell fraction (LEE011/Ribociclib; 1 µM): 0.0164
increase in dead-cell fraction (LEE011/Ribociclib; 3.162 µM): 0.0124
increase in dead-cell fraction (LEE011/Ribociclib; 10 µM): 0.0129
increase in dead-cell fraction (THZ1; 0.0001 µM): -0.0047
increase in dead-cell fraction (THZ1; 0.0003162 µM): -0.0081
increase in dead-cell fraction (THZ1; 0.001 µM): 0.0016
increase in dead-cell fraction (THZ1; 0.003162 µM): 0.019
increase in dead-cell fraction (THZ1; 0.01 µM): 0.0061
increase in dead-cell fraction (THZ1; 0.03162 µM): 0.113
increase in dead-cell fraction (THZ1; 0.1 µM): 0.421
increase in dead-cell fraction (THZ1; 0.3162 µM): 0.568
increase in dead-cell fraction (THZ1; 1 µM): 0.624
increase in dead-cell fraction (Flavopiridol [5]; 0.0001 µM): -0.0206
increase in dead-cell fraction (Flavopiridol [5]; 0.0003162 µM): 0.0043
increase in dead-cell fraction (Flavopiridol [5]; 0.001 µM): 0.0532
increase in dead-cell fraction (Flavopiridol [5]; 0.003162 µM): -0.0091
increase in dead-cell fraction (Flavopiridol [5]; 0.01 µM): 0.0053
increase in dead-cell fraction (Flavopiridol [5]; 0.03162 µM): -0.0105
increase in dead-cell fraction (Flavopiridol [5]; 0.1 µM): 0.0075
increase in dead-cell fraction (Flavopiridol [5]; 0.3162 µM): 0.15
increase in dead-cell fraction (Flavopiridol [5]; 1 µM): 0.612
increase in dead-cell fraction (THZ531; 0.0001 µM): 0.0118
increase in dead-cell fraction (THZ531; 0.0003162 µM): -0.0088
increase in dead-cell fraction (THZ531; 0.001 µM): -0.0009
increase in dead-cell fraction (THZ531; 0.003162 µM): -0.0126
increase in dead-cell fraction (THZ531; 0.01 µM): -0.0087
increase in dead-cell fraction (THZ531; 0.03162 µM): -0.0107
increase in dead-cell fraction (THZ531; 0.1 µM): 0.36
increase in dead-cell fraction (THZ531; 0.3162 µM): 0.611
increase in dead-cell fraction ([6]; 0.001 µM): 0.0028
increase in dead-cell fraction ([6]; 0.003162 µM): 0.0037
increase in dead-cell fraction ([6]; 0.01 µM): 0.0062
increase in dead-cell fraction ([6]; 0.03162 µM): -0.0026
increase in dead-cell fraction ([6]; 0.1 µM): 0.0042
increase in dead-cell fraction ([6]; 0.3162 µM): 0.0069
increase in dead-cell fraction ([6]; 1 µM): -0.0008
increase in dead-cell fraction ([6]; 3.162 µM): 0.0149
increase in dead-cell fraction ([6]; 10 µM): 0.0352
increase in dead-cell fraction ([7]; 0.0003162 µM): -0.0075
increase in dead-cell fraction ([7]; 0.001 µM): 0.0038
increase in dead-cell fraction ([7]; 0.003162 µM): 0.0189
increase in dead-cell fraction ([7]; 0.01 µM): 0.0048
increase in dead-cell fraction ([7]; 0.03162 µM): -0.0042
increase in dead-cell fraction ([7]; 0.1 µM): -0.001
increase in dead-cell fraction ([7]; 0.3162 µM): -0.0035
increase in dead-cell fraction ([7]; 1 µM): 0.0145
increase in dead-cell fraction ([7]; 3.162 µM): 0.0042
